Patent US5011828A, “Immunostimulating guanine derivatives, compositions and methods” (priority 1988, dated 1991)

Tests used:
[1] = test system: murine lymphocytes (sheep red blood cells as antigen); assay: Antigen-specific adjuvanticity: direct anti-SRBC plaque forming cells, murine system; assay type: cell-based, mouse; settings: for Average 1 Log Plaque Values: Table 9, murine, * = single study
Excerpt: ^1 Adjuvanticities against sheep red blood cells [SRBC] measured in
direct plaqueforming cells per culture of lymphocytes from the mouse
strains shown. Details of the procedure are provided in the Materials and
Methods Section. Standard errors from the enumerated mean values are show
A large number of comparisons of adjuvanticity using human and murine lymphocytes as the source of leukocytes have been carried out using compounds of the present invention, as well as with new compounds excluded from the present invention. […] Interstudy comparisons are however useful for showing trends and large differences. Tables 5, 6 and 7, hereinafter, provide exemplary data from such studies in which only the activity at the peak concentration is shown for each compound and the results for the controls are omitted.
Lymphocyte cultures. The serum-containing culture medium water prepared to contain the following per 100 milliliters: 91.9 milliliters RPMI 1640 (Flow Laboratories, Inc., Rockville, Md.), 0.1 milliliters of 100×glutamine, 1.0 milliliter of 100×sodium pyruvate, 1 0 milliliter of 50×nonessential amino acids, 1.0 milliliter of water containing 10^4 units of penicillin G and 10^4 micrograms of streptomycin, and 5.0 milliliters of a supportive lot of fetal calf serum (FCS). These ingredients were admixed to apparent homogeneity. Spleen cell suspensions and populations enriched for splenic B cells were prepared as described in Goodman et al., J. Immunol., 121:1905 (1978).
For evaluation of the primary humoral immune response to sheep erythrocytes (SRBC), 5×10^6 to 10^7 murine spleen cells were cultured in 1.0 milliliter of 5% FCS-containing medium for 4 or 5 days in the presence and absence of immunogen. Cells were incubated in culture trays (Costar, Cambridge, Mass.) at 37° C. in a humidified atmosphere of 10% CO2 in air using tissue culture boxes (CBS Scientific, Del Mar, Calif.) that were rocked at a frequency of 7 cycles per minute. Pooled SRBC are available from the Colorado Serum Co., Denver Colo.
(§1) Assay of plaque forming cells (PFC). PFC secreting antibodies against SRBC were evaluated after 4 or 5 days of culture using a modification of the hemolytic plaque assay of Jerne and Nordin, Science, 140:405 (1963). The cells were brought up in complete medium before plaquing; they were plaqued in standard low Mr agarose (Bio-Rad Laboratories, Richmond Calif.), and were incubated in SRBC-absorbed guinea pig complement for one hour after a 1.5 hour incubation without complement.

murine spleen cells = assay: Mitogenicity: [3H]TdR uptake, murine system; assay type: cell-based, mouse; settings: Table 2
[2] = test system: human peripheral blood lymphocytes (sheep red blood cells as antigen); assay: Antigen-specific adjuvanticity: direct anti-SRBC plaque forming cells, human system; assay type: cell-based
Description: ^1 Studies were carried in a manner similar to those of Table 1,
except that a human lymphocyte preparation was used.
The results shown in Table 7, below, were obtained similarly to those discussed above, but using human lymphocytes. Some of those studies utilized lymphocytes from more than one individual, and are therefore reported with multiple entries.
Human peripheral blood lymphocytes (PBL) were prepared from normal heparinized venous blood by Ficoll-diatrizoate density gradient centrifugation. PBL were depleted of suppressor T cells bearing the histamine type 2 receptor by adhering them to the surfaces of histamine-rabbit serum albumin-coated plastic petri dishes (Cell-ect No. 2 kit; Seragen, Boston, Mass.) and by recovering the nonadherent cells by panning as described by Wysocki and Sato, Proc. Natl. Acad. Sci. USA, 75:2844 (1978) and modified by Cavagnaro and Osband, Biotechniques, January/February:30 (1983).
The tissue culture medium employed in these studies for human lymphocytes was prepared as follows: One hundred milliliters (ml) contained 87.9 ml RPMI 1640 (Flow Laboratories, Rockville, Md.), 0.1 ml 100×glutamine,1.0 ml of 1.0 M HEPES buffer (Microbilogical Associates, Betheseda, Md.), 1.0 ml of water containing 10^4 U of penicillin G and 10^4 micrograms of streptomycin, and 10 ml of fresh autologous heat-inactivatedplasma. For evaluation of the primary humoral immune response to SRBC, lymphoid cells prepared as above were cultured at a density of 2×10^6 /ml in a volume of 1.0 ml containing 5×10^6 SRBC as antigen (Colorado Serum Co., Denver, Colo.) together with IL-2 (a partially purified preparation of human IL-2 that was free of interferon-gamma activity was obtained from Electro-Nucleonics, Inc., Silver Spring, Md.) and the guanine nucleoside derivative.
as §1

[3] = Table 5, murine system, at peak concentration
[4] = Table 6, murine system, at peak concentration
[5] = Table 7, later studies, single preparation

SMILES: Nc1nc2c(nc(Br)n2[C@@H]2O[C@H](CO)[C@@H](O)[C@H]2O)c(=O)[nH]1 [8BrGuo, 8-bromoguanosine, reference compound]
- Peak Direct anti-SRBC PFC/Culture [1, 3]: 2450 ± 325 PFC/Culture
- Peak Direct anti-SRBC PFC/Culture ([1]; Table 6, first study (note 4)): 1167 ± 68 PFC/Culture
- Peak Direct anti-SRBC PFC/Culture ([1]; Table 6, second study (note 4)): 633 ± 96 PFC/Culture

SMILES: C=CCSc1nc2c(=O)[nH]c(N)nc2n1[C@@H]1O[C@H](CO)[C@@H](O)[C@H]1O [compound 22300, 8-(2-propenylmercapto)guanosine]
- Direct Anti-SRBC PFC/Culture ([1]; Table 1, CBA/CaJ, 3 × 10^-4 M): 870 ± 70 PFC/Culture
- Direct Anti-SRBC PFC/Culture ([1]; Table 1, CBA/CaJ, 10^-3 M): 490 ± 133 PFC/Culture
- Direct Anti-SRBC PFC/Culture ([1]; Table 1, CBA/CaJ, 10^-4 M): 420 ± 105 PFC/Culture
- adjuvanticity, in words ([1]; murine system): about equal adjuvanticity to that of 8MGuo
- [3H] TdR Uptake (murine spleen cells; 10^-3 M): 16,400 ± 1130 cpm/culture
- [3H] TdR Uptake (murine spleen cells; 10^-4 M): 2700 ± 130 cpm/culture

SMILES: Nc1nc2c(nc(SCC=Cc3ccccc3)n2[C@@H]2O[C@H](CO)[C@@H](O)[C@H]2O)c(=O)[nH]1 [compound 22359, 8-(Cinnamylmercapto)guanosine]
- Direct Anti-SRBC PFC/Culture ([1]; Table 1, C57BL/6J, 3 × 10^-4 M): 2620 ± 100 PFC/Culture
- Direct Anti-SRBC PFC/Culture ([1]; Table 1, C57BL/6J, 10^-3 M): 3110 ± 350 PFC/Culture
- Direct Anti-SRBC PFC/Culture ([1]; Table 1, CBA/CaJ, 3 × 10^-4 M): 157 ± 7 PFC/Culture
- Direct Anti-SRBC PFC/Culture ([1]; Table 1, CBA/CaJ, 10^-3 M): 653 ± 52 PFC/Culture
- Direct Anti-SRBC PFC/Culture ([1]; Table 1, CBA/CaJ, 10^-4 M): 123 ± 21 PFC/Culture
- [3H] TdR Uptake (murine spleen cells; 3 × 10^-4 M): 1300 ± 80 cpm/culture
- [3H] TdR Uptake (murine spleen cells; 10^-3 M): 1700 ± 280 cpm/culture
- [3H] TdR Uptake (murine spleen cells; 10^-4 M): 1600 ± 90 cpm/culture

SMILES: C=CCn1c(=S)n([C@@H]2O[C@H](COC(C)=O)[C@@H](OC(C)=O)[C@H]2OC(C)=O)c2nc(N)[nH]c(=O)c21 [compound 22360, 7-(2-Propenyl)-8-thioxo-2',3',5'-triacetylguanosine]
- Peak Direct anti-SRBC PFC/Culture [1, 4]: 743 ± 48 PFC/Culture
- Direct Anti-SRBC PFC/Culture ([1]; Table 8, 1 × 10^-5 M): 1176 PFC/Culture
- Average 1 Log Plaque Values [1]: 53,695 ± 28,444 per micromole
- Peak Direct anti-SRBC PFC/Culture ([2]; Table 7, second group, person a): 925 PFC/Culture
- Peak Direct anti-SRBC PFC/Culture ([2]; Table 7, second group, person b): 6008 PFC/Culture
- Peak Direct anti-SRBC PFC/Culture ([2]; Table 7, second group, person c): 5050 PFC/Culture
- Average 1 Log Plaque Values ([2]; Table 9, human, * = single study): 38,508 ± 26,802 per micromole

SMILES: CC=CCSc1nc2c(=O)[nH]c(N)nc2n1[C@@H]1O[C@H](CO)[C@@H](O)[C@H]1O [compound 22435, 8-(2-Butenylmercapto)guanosine]
- Direct Anti-SRBC PFC/Culture ([1]; Table 1, C57BL/6J, 3 × 10^-4 M): 9130 ± 1110 PFC/Culture
- Direct Anti-SRBC PFC/Culture ([1]; Table 1, C57BL/6J, 10^-3 M): 12,080 ± 470 PFC/Culture
- Direct Anti-SRBC PFC/Culture ([1]; Table 1, CBA/CaJ, 3 × 10^-4 M): 582 ± 52 PFC/Culture
- Direct Anti-SRBC PFC/Culture ([1]; Table 1, CBA/CaJ, 10^-3 M): 607 ± 57 PFC/Culture
- Direct Anti-SRBC PFC/Culture ([1]; Table 1, CBA/CaJ, 10^-4 M): 247 ± 38 PFC/Culture
- adjuvanticity, in words ([1]; murine system): greater than that of the longer 8-cinnamyl derivative (22359), but less than that of the 8-mercapto compound (8MGuo)
- [3H] TdR Uptake (murine spleen cells; 3 × 10^-4 M): 8800 ± 200 cpm/culture
- [3H] TdR Uptake (murine spleen cells; 10^-3 M): 11,200 ± 202 cpm/culture
- [3H] TdR Uptake (murine spleen cells; 10^-4 M): 4500 ± 120 cpm/culture

SMILES: Nc1nc2c(c(=O)[nH]1)n(CC=Cc1ccccc1)c(=O)n2[C@@H]1O[C@H](CO)[C@@H](O)[C@H]1O [compound 22827, 7-[(3-Phenyl)-2-propenyl]-8-oxoguanosine]
- Peak Direct anti-SRBC PFC/Culture [1, 3]: 1357 ± 226 PFC/Culture
- adjuvanticity higher / more active than comparison compound of U.S. Pat. No. 4,643,992 ([1]; murine system (Table 5), vs 7m8oGuo or compounds of that patent): more than 100%
- Peak Direct anti-SRBC PFC/Culture [2, 5]: 2577 ± 300 PFC/Culture

SMILES: C=CCn1c(=S)n([C@@H]2O[C@H](CO)[C@H]3OC(C)(C)O[C@H]32)c2nc(N)[nH]c(=O)c21 [compound 23083, 7-(2-Propenyl)-8-thioxo-2',3'-O-isopropylidineguanosine hemihydrate]
- Peak Direct anti-SRBC PFC/Culture [1, 4]: 2150 ± 250 PFC/Culture
- adjuvanticity, in words ([1]; murine system): activity substantially identical to that of 7a8oGuo, albeit at about one-half log higher concentration

SMILES: C=CCn1c(=S)n([C@@H]2O[C@H](COC(C)=O)[C@H]3OC(C)(C)O[C@H]32)c2nc(N)[nH]c(=O)c21 [compound 23287, 5'-Acetyl-7-(2-propenyl)-2',3'-O-isopropylidene-8-thioxoguanosine]
- Peak Direct anti-SRBC PFC/Culture ([1]; Table 6, first study (note 4)): 1650 ± 63 PFC/Culture
- Peak Direct anti-SRBC PFC/Culture ([1]; Table 6, second study (note 4)): 1675 ± 298 PFC/Culture
- adjuvanticity, in words ([1]; murine system): about twice that exhibited by 8-bromoguanosine (8BrGuo)

SMILES: C=CCn1c(=S)n(C2OC(COC(=O)c3ccccc3)C3OC(C)(C)OC32)c2nc(N)nc(OC(=O)c3ccccc3)c21 (stereo not shown) [compound 23314, 7-(2-Propenyl)-6,5'-dibenzoyl-2',3'-O-isopropylidene-8-thioxoguanosine]
- Peak Concentration ([1]; Table 6, murine system): 10^-5 moles per liter
- Peak Direct anti-SRBC PFC/Culture ([1]; Table 6, study b): 243 ± 19 PFC/Culture

SMILES: C=CCn1c(=S)n([C@@H]2O[C@H](COC(=O)c3ccccc3)[C@H]3OC(C)(C)O[C@H]32)c2nc(NC(=O)c3ccccc3)[nH]c(=O)c21 [compound 23350, 7-(2-Propenyl)-2-N,5'-O-dibenzoyl-2',3'-O-isopropylidene-8-thioxoguanosine hemihydrate]
- Peak Direct anti-SRBC PFC/Culture ([1]; Table 6, study c): 45 ± 8 PFC/Culture
- adjuvanticity, in words ([1]; murine system): substantially inactive at the concentrations utilized

SMILES: C=CCn1c(=S)n(C2OC(COC(=O)c3ccccc3)C3OC(C)(C)OC32)c2nc(N)[nH]c(=O)c21.O (stereo not shown) [compound 23351, 7-(2-Propenyl)-5'-benzoyl-2',3'-O-isopropylideneguanosine-8-thioxoguanosinequarterhydrate]
- Peak Concentration ([1]; Table 6, murine system): 10^-4 moles per liter
- Peak Direct anti-SRBC PFC/Culture ([1]; Table 6, study a): 1431 ± 134 PFC/Culture
- adjuvanticity, in words ([1]; murine system): A similar result was obtained

SMILES: C=CCn1c(=[Se])n([C@@H]2O[C@H](CO)[C@@H](O)[C@H]2O)c2nc(N)[nH]c(=O)c21 [compound 23369, 7-(2-Propenyl)-8-selenoxoguanosine]
- Peak Direct anti-SRBC PFC/Culture [1, 3]: 2425 ± 229 PFC/Culture
- Peak Direct anti-SRBC PFC/Culture [2, 5]: 2204 ± 370 PFC/Culture

SMILES: CC=CCn1c(=O)n([C@@H]2O[C@H](CO)[C@@H](O)[C@H]2O)c2nc(N)[nH]c(=O)c21 [compound 23679, 7-(2-Butenyl)-8-oxoguanosine]
- Direct Anti-SRBC PFC/Culture ([1]; Table 8, 1 × 10^-5 M): 612 PFC/Culture
- Average 1 Log Plaque Values [1]: 52,332 per micromole
- Peak Direct anti-SRBC PFC/Culture [2, 5]: 3129 ± 252 PFC/Culture

SMILES: CCCCCCCCCCn1c(=O)n([C@@H]2O[C@H](CO)[C@@H](O)[C@H]2O)c2nc(N)[nH]c(=O)c21 [compound 23894, 7-Decyl-8-oxoguanosine]
- Peak Direct anti-SRBC PFC/Culture [1, 3]: 90 ± 15 PFC/Culture

SMILES: CCCCCCn1c(=O)n([C@@H]2O[C@H](CO)[C@@H](O)[C@H]2O)c2nc(N)[nH]c(=O)c21 [compound 23924, 7-Hexyl-8-oxoguanosine]
- Direct Anti-SRBC PFC/Culture ([1]; Table 8, 1 × 10^-5 M): 243 PFC/Culture

SMILES: CCCn1c(=O)n([C@@H]2O[C@H](CO)[C@@H](O)[C@H]2O)c2nc(N)[nH]c(=O)c21 [compound 24069, 7-Propyl-8-oxoguanosine]
- Direct Anti-SRBC PFC/Culture ([1]; Table 8, 1 × 10^-5 M): 1306 PFC/Culture

SMILES: Nc1nc2c(c(=O)[nH]1)n(Cc1ccccc1)c(=O)n2[C@@H]1O[C@H](CO)[C@@H](O)[C@H]1O [compound 24234, 7-Benzyl-8-oxoguanosine]
- Peak Direct anti-SRBC PFC/Culture [1, 3]: 2004 PFC/Culture
- Average 1 Log Plaque Values [1]: 110,777 ± 42,823 per micromole
